Test results published in a melting point compilation (Tetko et al.; mined from patent text by program, amines drawn as free bases though some values may be those of a salt).

| melting point | SMILES |
| --- | --- |
| > 330 °C | O=C1Nc2cc(Cl)ccc2C(=O)C1c1ccccn1 (stereo not drawn) |
| 155 to 157 °C | O=C(O)CN1C(=O)C(=CCCCCl)SC1=S |
| 245 °C | CC1(C)CCC(C)(C)c2cc(-c3cc(-c4ccc(C(=O)O)cc4)ccc3OCCCCCC(=O)O)ccc21 |
| 192 to 193 °C | CCOC(=O)C(=O)c1csc(NC(=S)Nc2ccccc2F)n1 |
| 109 to 112 °C | CC(C#N)c1cccc2c(-c3ccccc3)onc12 (stereo not drawn) |
| 131 to 132 °C | CNC(=O)C(=O)CCCCCCSc1ccc(-c2ccccc2)cc1 |
| 241 to 244 °C | O=C(c1ccccc1)N1CCc2[nH]c3cccc(-c4ccccc4F)c3c2CC1 |
| 117 to 118 °C | C=C(c1ccc(I)cc1)C(O)(Cn1cncn1)c1ccccc1F (stereo not drawn) |
| 218 to 220 °C | O=C1NC(=O)c2c1c(-c1ccccc1Cl)cc1c2cc(CO)n1CCCBr |
| 149 to 150 °C | Cc1ccc(NC(=O)c2cccc(N3CCOCC3)c2)cc1[N+](=O)[O-] |
| 131 °C | COc1ccc(C#CC(C)N(O)C(N)=O)o1 (stereo not drawn) |
| 175 to 176 °C | CCCn1nc2c(N)nc3ccccc3c2c1CCc1ccccc1 |
| 144 to 145 °C | CS(=O)(=O)c1c(C(=O)c2cnoc2C2CC2)ccc(Br)c1F |
| 171 to 173 °C | CCOC(=O)Cc1c(C#N)cnc2c(NC(=O)c3c(Cl)cccc3Cl)cccc12 |
| 159 to 161 °C | Cc1noc(-c2cccc(CN3CCN(c4ccc(NC(=O)OC(C)(C)C)cc4)CC3)c2)n1 |
| 55 to 58 °C | CCOC(=O)c1ccc(CSc2nnc(C)s2)cc1 |
| 196 to 201 °C | CC(=O)Nc1c(OC(C)=O)cc(C(=O)O)cc1[N+](=O)[O-] |
| 69 to 71 °C | CC(c1ccccc1)C(Br)C(=O)c1ccccc1 (stereo not drawn) |
| 235 to 237 °C | Cc1cnc(CCCCn2cnc(NC(N)=NCC(F)(F)F)n2)nc1O |
| 93 to 95 °C | CC(=O)N1c2ccc(F)cc2CC1C#N (stereo not drawn) |
| 135 to 136 °C | O=C(c1cc(-c2ccc(Cl)cc2)c(N2CCOCC2)s1)c1cc(-c2ccc(Cl)cc2)c(N2CCOCC2)s1 |
| 138 to 142 °C | Cc1cccc2c1C(=O)C(CO)(CO)CS2 |
| 173 to 174 °C | CCOC(=O)c1ccc(/C=C(\C)c2ccc3c(c2)C(C)(C)C(=O)CC3(C)C)cc1 |
| 267 to 268 °C | Cc1nc(Nc2ccc(Cl)cc2)sc1-c1nc2ccccc2c(=O)n1-c1ccc(Cl)cc1 |

| melting point | SMILES |
| --- | --- |
| 176 to 179 °C | C[C@H](CN(C(=O)C1C2CCC1CC2)c1ccccn1)N1CCN(c2cccc3[nH]ccc23)CC1 (stereo partly drawn) |
| 191 to 194 °C | COc1cccc(C2CNC(=O)C2c2cn3c4c(cccc24)CCC3)c1 (stereo not drawn) |
| 133 to 134 °C | CCCCCCCCSc1nc(-c2ccccc2)c(-c2ccccc2)[nH]1 |
| 148 to 150 °C | CCC1(CCCCN2CCN(c3ccc(Cl)cc3)CC2)C(=O)Nc2ccc(F)cc21 (stereo not drawn) |
| 155 to 157 °C | CCOc1c(CN2CCCCC2)c2c(c3c1OC(C)(C)C3)C(c1cccc(NC(=O)c3ccccc3C(=O)O)c1)=NC(C)(C)C2 |
| 149 to 151 °C | CCCCC1(CCCC)CCc2c(OCc3ccc4ccccc4n3)ccc(C)c2C1O (stereo not drawn) |
| 98 to 99 °C | CCNC(=O)n1nc(Oc2c(Cl)cc(C(F)(F)F)cc2[N+](=O)[O-])cc1C |
| 230 to 231 °C | CCON1CCC2(CC1)NC(=O)C(c1c(C)cc(C)cc1C)=C2OC(=O)C(C)(C)C |
| 234 to 235 °C | Nc1c(C(=O)c2cc(Cl)ccn2)[nH]c2cc(Cl)ccc12 |
| 191 to 193 °C | O=C(c1ccccc1)c1ccccc1SSc1ccccc1C(=NO)c1ccccc1 |
| 110 °C | CS(=O)(=O)Cc1c(C(=O)c2cnoc2C2CC2)ccc(S(C)(=O)=O)c1Cl |
| 260 °C | Cc1[nH]c(=O)cc2c1CC(c1ccccn1)CC2 (stereo not drawn) |
| 209 to 213 °C | Cc1nc(-c2cccc(CN3C(=O)C4(COc5cc6c(cc54)CCO6)c4ccccc43)c2)no1 (stereo not drawn) |
| 88 °C | Cc1ncn(C)c1-c1nc(C2CC2)no1 |
| 208 to 209 °C | N#Cc1c(Br)c(Br)n(O)c1-c1ccc(Cl)cc1 |
| 175 to 176 °C | Nc1ncnc2c1c(Cl)cn2COC(O)CCO (stereo not drawn) |
| 130 °C | COc1ccc(CS[C@@H]2C[C@@H](C(=O)NN)N(S(=O)(=O)c3ccc4ccccc4c3)C2)cc1 |
| 110 to 112 °C | CCCCCCNc1ccccc1CC(=O)Nc1c(C(C)C)cccc1C(C)C |
| 165 to 166 °C | CC(C)(C)OC(=O)N1CCC(NC(=O)c2ccc(-n3ncc4ccccc43)cc2)CC1 |
| 167 to 169 °C | CC(C)=NNC(=O)c1ccc(-c2ccc(Cl)cc2)o1 |
| 91 °C | CCCCCCCCCCCCCCCCCCNc1nc(N)nc(N)n1 |
| 125 to 127 °C | CS(=O)(=O)Oc1cnc2cc(OC(F)(F)F)ccc2c1O |
| 205 to 207 °C | O=C(O)c1ccc(-c2nn(Cc3ccccc3)c3ccccc23)cc1 |

More lines, now with the values behind:

| SMILES | melting point |
| --- | --- |
| CNc1nn(-c2ccccc2)cc1C=O | 83 to 84 °C |
| CCOC(=O)COc1cccc2c1OCCC2=O | 56 to 66 °C |
| O=C(Cn1cnc2ccccc21)c1ccc(Cl)cc1Cl | 130 to 132 °C |
| C[C@@H](N(CC(=O)O)C(=O)c1ccc(OC(F)(F)F)cc1)[C@](O)(Cn1cncn1)c1ccc(F)cc1F (relative stereo) | 99 to 105 °C |
| CN1CCN(Cc2ccc(-c3nc4cc([N+](=O)[O-])ccc4o3)s2)CC1 | 135 to 137 °C |
| CC1(C)OCC(C(O)CNC(=O)c2cc(C(=O)NCC(O)C3COC(C)(C)O3)cc(S(=O)(=O)Nc3ccc(F)c(C(F)(F)F)c3)c2)O1 (stereo not drawn) | 217 to 218 °C |
| Nc1ncc(-c2cc(Cl)cc(Cl)c2Cl)c(N)n1 | 246 to 249 °C |
| O=C1c2ccccc2C(O)(c2ccc(Cl)cc2)N1Cc1ccc(Cl)cc1 (stereo not drawn) | 156 to 157 °C |
| CCCc1c(C(=O)C(C)C)c2ccc(C(N)=O)cc2n1Cc1ccccc1NC(=O)NC | 222 to 223 °C |
| CN1C(=O)CC[C@]2(C)c3ccc(SCc4ccccc4)cc3CC[C@@H]12 | 137 to 138 °C |
| COc1cccc(CCNC(=O)c2ccc3c(c2)C=CC(C)(C)O3)c1 | 105 to 110 °C |
| CCCCCCCCCCCCCCCCn1c(-c2ccc(Cl)c(N)c2)nc2ccccc21 | 162 to 163 °C |
| O=C(NC(=O)c1cc(F)c(F)cc1Cl)Nc1ccc(C(=O)O)cc1OC(F)(F)F | 236 °C |
| CC(C)(C)C1=C(C#N)C(c2ccccc2Cl)c2c[nH]nc2N1 (stereo not drawn) | 198 °C |
| COc1ccc(CCc2oc3cccc(O)c3c2C)cc1 | 72 to 75 °C |
| CC1=Nc2ccccc2CC(c2ccsc2C)N1C (stereo not drawn) | 91 to 92 °C |
| CCN1CCN(c2c(F)cc3c(=O)c(C(=O)O)cn(C4CC4)c3c2C#N)CC1 | > 300 °C |
| COc1cc2c(cc1O)CCN(C(=O)c1cc(OC)c(OC)c(OC)c1)C2=O | 175 to 176 °C |
| COc1ccc(/C=C/c2nc3c(c(=O)n(C)c(=O)n3C)n2C)c(C)c1C | > 275 °C |
| CNc1cc(NC)nc(NS(=O)(=O)c2ccc(N)cc2)n1 | 262 to 263 °C |
| N#CCc1coc2ccc(Br)cc12 | 120 °C |
| N#CCON=C(C(=O)O)c1csc(NC(c2ccccc2)(c2ccccc2)c2ccccc2)n1 | 180 °C |
| Cc1ccc(NC(=O)c2ccc(C3OCC(SC(C)C(O)(Cn4cncn4)c4ccc(F)cc4F)CO3)cc2)cc1 (stereo not drawn) | 101 °C |
| O=C(Oc1ccc(F)cc1Cl)Oc1ccc(F)cc1Cl | 91 to 92 °C |
| O=S=Nc1ccc(C(=O)Cl)cc1 | 31 °C |
| CCCCN(Cc1ccc(-c2ccccc2-c2nnn[nH]2)cc1)c1ncncc1C(=O)OCC | 109 to 111 °C |

| SMILES | melting point |
| --- | --- |
| Cc1ncc2cc(-c3c(C)cccc3Cl)c(N)nc2n1 | 267 to 271 °C |
| CN1C(=O)C(F)N=C(c2ccccc2F)c2cc(Cl)ccc21 (stereo not drawn) | 91 to 95 °C |
| Cc1cc(C(=O)N2Cc3ccc(C(=O)N(CCO)CCO)n3Cc3ccccc32)ccc1-c1ccccc1C(F)(F)F | 127 to 130 °C |
| COC(=O)[C@@H]1[C@@H](Cc2ccccc2)C[C@@H]2CC[C@H]1N2C | 79 to 80 °C |
| CC1(O)CC=C2C3CCC4=CC(=O)CCC4C3C(c3ccc(-c4ccoc4)cc3)CC21C (stereo not drawn) | 198 to 199 °C |
| Cn1c(=Nc2cccnc2)sc2ncccc2c1=O | 160 °C |
| CC12CCCC1C1=CCc3cc(O)ccc3C1CC2 (stereo not drawn) | 130 to 134 °C |
| C=CCCCCC1CCC(CC)(CC(=O)O)c2[nH]c3c(C)cccc3c21 (stereo not drawn) | 111 to 112 °C |
| C/C(=C\c1ccccc1)CNc1cccc(-c2ccnc3c(C(=O)c4cccs4)cnn23)c1 | 74 to 76 °C |
| NS(=O)(=O)c1cc(C(=O)O)cc([N+](=O)[O-])c1Oc1cccc(C(F)(F)F)c1 | 210 °C |
| CC(C)(C)OC(=O)N1CCN(C(c2ccccc2)c2ccc(Cl)cc2)CC1 (single isomer, unassigned; (-)) | 156 °C |
| O=C(O)c1cccc2nc3ccc4[nH]ncc4c3nc12 | 305 to 310 °C |
| CCCc1nc(SC)c(C(O)(C(=O)O)C(C)C)n1Cc1ccc(-c2ccccc2S(=O)(=O)NC(=O)NCc2ccccc2)cc1 (stereo not drawn) | 180 °C |
| CCC(=CC(CNC(=O)c1cnccc1C(N)=O)=NO)C(C)[N+](=O)[O-] (stereo not drawn) | 122 to 123 °C |
| O=C(Nc1ccnnc1)Nc1cc(F)cc(F)c1 | 272 to 273 °C |
| O=C(NCC1CCC1)NCC1CCC1 | 153 to 155 °C |
| CCCCn1c(C)nc(N2CCc3ccccc3CC2)c([N+](=O)[O-])c1=O | 158 to 161 °C |
| COc1cc(OC)c([N+](=O)[O-])nc1NCCO | 131 °C |
| CCCCCC(O)C=CC1C(O)CC(=O)C1CCCCCCC(=O)OCCSS(C)(=O)=O (stereo not drawn) | 56 to 58 °C |
| CCCc1c(O)ccc2c1OC(C)(CCC(=O)OC)CC2=O (stereo not drawn) | 102 °C |
| COc1ccc(C2C(C(=O)/C=C/c3ccc(O)c(OC)c3)C(=O)CC(c3ccc(O)c(OC)c3)C2[N+](=O)[O-])cc1 (stereo not drawn) | 83 to 85 °C |
| O=C(NC1c2ccccc2-c2[nH]c(=O)c3nccn3c21)c1ccccc1 (stereo not drawn) | 300 °C |
| CCn1c2ccccc2c2cc(N(c3ccccc3)c3ccccc3)ccc21 | 152 to 154 °C |
| CCCC=Cc1c(C(C)C)nc(C(C)C)c(CO)c1-c1ccc(Cl)c(Cl)c1 | 46 to 48 °C |
| CCOc1ccc(-n2c(N)cc(=O)[nH]c2=S)cc1 | 222 to 225 °C |
